Test results taken from patent US8835429B2, “Pyrimidine compounds, their use as mTOR kinase and Pl3 kinase inhibitors, and their syntheses” (Wyeth LLC, priority 2009, dated 2014).

Legend:
PI3K-alpha = PI3K-alpha (Homo sapiens, UniProt P42336); experiment: PI3K-alpha fluorescence polarization assay; type: biochemical; details: 20 μM PIP2, 25 μM ATP; read-out: PI3Kα IC50
Outline: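 PIP2 (diC8) and ATP substrate with PI3K in 20 mM HEPES pH 7.5, 2 mM MgCl2, 0.05% CHAPS, 0.01% βME; 1% DMSO final; 30–60 min reaction. Stopped with EDTA plus GST-GRP (70 nM) and TAMRA probe (10 nM); FP (mP) read after 30–90 min, with no-enzyme controls.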

LNCap = experiment: In vitro cell growth assay (MTS), LNCap; type: cell-based; details: LNCaP, 72 h, human prostate line, three days after drug treatment
PI3K-gamma = PI3K-gamma (Homo sapiens, UniProt P48736); experiment: PI3K-gamma fluorescence polarization assay; type: biochemical; details: 20 μM PIP2, 25 μM ATP; read-out: PI3Kγ IC50
Chain of PI3K-gamma (P48736 whole entry, species assumed): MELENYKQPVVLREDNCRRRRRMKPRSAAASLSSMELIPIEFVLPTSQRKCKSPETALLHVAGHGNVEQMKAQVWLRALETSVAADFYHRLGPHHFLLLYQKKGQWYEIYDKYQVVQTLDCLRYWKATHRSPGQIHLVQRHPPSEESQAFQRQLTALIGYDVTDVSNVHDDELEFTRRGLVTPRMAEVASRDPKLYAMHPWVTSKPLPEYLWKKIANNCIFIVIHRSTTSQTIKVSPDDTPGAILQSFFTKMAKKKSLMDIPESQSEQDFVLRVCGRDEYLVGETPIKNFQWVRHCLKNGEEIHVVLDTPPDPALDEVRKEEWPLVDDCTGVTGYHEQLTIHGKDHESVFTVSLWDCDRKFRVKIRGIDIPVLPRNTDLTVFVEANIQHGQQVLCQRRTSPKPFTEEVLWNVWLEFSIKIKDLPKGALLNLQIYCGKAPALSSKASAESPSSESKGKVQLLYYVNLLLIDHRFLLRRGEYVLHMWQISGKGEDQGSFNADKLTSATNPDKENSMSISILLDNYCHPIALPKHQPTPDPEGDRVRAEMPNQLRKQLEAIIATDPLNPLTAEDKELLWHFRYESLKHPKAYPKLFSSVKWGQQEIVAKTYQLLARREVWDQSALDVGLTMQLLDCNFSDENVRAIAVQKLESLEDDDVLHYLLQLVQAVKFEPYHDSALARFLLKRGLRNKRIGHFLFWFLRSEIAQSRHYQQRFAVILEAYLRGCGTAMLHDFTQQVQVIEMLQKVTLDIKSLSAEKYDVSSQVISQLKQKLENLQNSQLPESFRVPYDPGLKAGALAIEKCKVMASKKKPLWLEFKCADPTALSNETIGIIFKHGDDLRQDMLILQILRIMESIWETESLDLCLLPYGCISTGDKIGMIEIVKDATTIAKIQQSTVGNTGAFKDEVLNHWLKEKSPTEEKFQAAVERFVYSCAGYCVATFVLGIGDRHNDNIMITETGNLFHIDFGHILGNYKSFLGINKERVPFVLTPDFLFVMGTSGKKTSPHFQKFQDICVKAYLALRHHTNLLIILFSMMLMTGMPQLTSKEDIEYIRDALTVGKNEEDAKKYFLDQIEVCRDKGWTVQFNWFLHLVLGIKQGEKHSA
Procedure: The reaction buffer was 20 mM HEPES, pH 7.5, 2 mM MgCl2, 0.05% CHAPS; and 0.01% βME (added fresh). The stop/detection buffer was 100 mM HEPES, pH 7.5, 4 mM EDTA, 0.05% CHAPS; ATP 20 mM in water; PIP2 (diC8, Echelon, Salt Lake City Utah cat #P-4508) 1 mM in water (MW=856.5). The GST-GRP was 1.75 mg/mL or 1.4 mg/mL in 10% glycerol. The red detector (TAMRA) was 2.5 μM. Nunc 384-well black polypropylene fluorescent plates were used for PI3K assays.
The assay is run by placing 5 μL of diluted enzyme per well, then 5 μL of diluted compound (or 9.5 μL enzyme then 0.5 μL compound in DMSO) is added and mixed. Then, 10 μL substrate is added to start the reaction. The samples are incubated 30-60 minutes, then the reaction is stopped by adding 20 μL stop/detector mix. PI3K is diluted with reaction buffer (e.g., 5 μL or 7.5 μL PI3K into 620 μL reaction buffer), and 5 μL of diluted enzyme is used per well. A 5 μL portion of reaction buffer or of drug diluted in buffer (e.g., 4 μL/100 so final DMSO is 1% in reaction) is added to each. Pipetting up and down mixes the samples. Alternatively, the enzyme can be diluted to 1215 μL. In this case 9.8 μL is added per well and 0.2 μL compound is added in DMSO.
To prepare 1 mL of substrate solution, 955 μL reaction buffer, 40 μL PIP2, and 2.5 μL ATP are mixed. 10 μL of substrate is added to each well to start the reaction. […] The stop/detector mix is prepared by mixing 4 μL red detector and 1.6 μL or 2.0 μL GST-GRP with 1 mL stop buffer, which results in 10 nM probe and 70 nM GST-GRP. 20 μL of the stop/detector mix is added to each well to stop the reaction. The plates are read after 30-90 minutes keeping the red probe solutions dark. For the zero time point, stop/detector mix is added to the enzyme just before adding substrate. For an extra control, stop/detector mix is added to buffer (no enzyme) and substrate or to just buffer (no substrate). […] The recommended reaction has 0.06 μL per 20 μL (0.015 μg/20 μL) or 0.01125 μg/15 μL or 0.75 μg/mL.
Plates are read on machines with filters for TAMRA. The units are mP with no enzyme controls reading app 190-220 mP units. Fully active enzyme reduces fluorescence polarization down to 70-100 mP after 30 minutes. An active compound raises the mP values halfway to control or to 120-150 mP units.

mTOR = mTOR (Homo sapiens, UniProt P42345); experiment: mTOR enzyme assay (DELFIA, purified FLAG-TOR, His6-S6K substrate); type: biochemical; set-up: FLAG; details: 100 μM ATP, 2 hours
Chain of mTOR (P42345 1360-2549 limits assumed): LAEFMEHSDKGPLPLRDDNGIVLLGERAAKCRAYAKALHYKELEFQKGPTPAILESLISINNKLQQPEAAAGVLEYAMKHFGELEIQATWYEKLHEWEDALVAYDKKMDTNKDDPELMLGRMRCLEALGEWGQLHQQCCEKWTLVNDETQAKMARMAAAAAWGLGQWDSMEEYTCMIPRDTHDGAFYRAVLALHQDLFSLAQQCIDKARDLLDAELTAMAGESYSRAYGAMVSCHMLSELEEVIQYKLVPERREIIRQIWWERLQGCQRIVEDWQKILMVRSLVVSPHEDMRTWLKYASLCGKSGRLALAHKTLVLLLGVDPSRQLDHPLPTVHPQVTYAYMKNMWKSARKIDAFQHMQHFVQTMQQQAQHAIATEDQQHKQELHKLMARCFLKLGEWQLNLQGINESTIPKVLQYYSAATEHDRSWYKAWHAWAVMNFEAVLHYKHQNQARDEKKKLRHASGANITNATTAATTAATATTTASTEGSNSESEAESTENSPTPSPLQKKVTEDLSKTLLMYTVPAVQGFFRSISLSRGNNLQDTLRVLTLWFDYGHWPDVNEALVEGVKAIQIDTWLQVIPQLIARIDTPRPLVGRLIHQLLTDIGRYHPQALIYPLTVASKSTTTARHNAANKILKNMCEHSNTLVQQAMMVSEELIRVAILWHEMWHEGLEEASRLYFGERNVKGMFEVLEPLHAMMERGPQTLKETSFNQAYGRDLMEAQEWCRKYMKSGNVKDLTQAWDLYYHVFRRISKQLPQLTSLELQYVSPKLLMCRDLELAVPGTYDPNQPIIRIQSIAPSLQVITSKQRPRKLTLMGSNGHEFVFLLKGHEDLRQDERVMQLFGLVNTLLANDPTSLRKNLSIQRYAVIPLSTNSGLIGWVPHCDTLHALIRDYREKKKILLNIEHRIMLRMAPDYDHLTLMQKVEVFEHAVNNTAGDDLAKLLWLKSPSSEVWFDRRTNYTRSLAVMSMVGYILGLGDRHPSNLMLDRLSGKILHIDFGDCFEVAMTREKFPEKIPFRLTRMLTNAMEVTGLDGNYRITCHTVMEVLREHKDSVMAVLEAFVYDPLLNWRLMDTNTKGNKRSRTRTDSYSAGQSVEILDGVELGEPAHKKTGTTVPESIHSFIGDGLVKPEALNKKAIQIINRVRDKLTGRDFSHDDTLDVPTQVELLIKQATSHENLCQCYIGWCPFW

MDA468 = experiment: In vitro cell growth assay (MTS), MDA468; type: cell-based; details: 72 h, human breast line MDA468, three days after drug treatment, read-out: MDA IC50

Chain of PI3K-alpha (P42336 whole entry, species assumed): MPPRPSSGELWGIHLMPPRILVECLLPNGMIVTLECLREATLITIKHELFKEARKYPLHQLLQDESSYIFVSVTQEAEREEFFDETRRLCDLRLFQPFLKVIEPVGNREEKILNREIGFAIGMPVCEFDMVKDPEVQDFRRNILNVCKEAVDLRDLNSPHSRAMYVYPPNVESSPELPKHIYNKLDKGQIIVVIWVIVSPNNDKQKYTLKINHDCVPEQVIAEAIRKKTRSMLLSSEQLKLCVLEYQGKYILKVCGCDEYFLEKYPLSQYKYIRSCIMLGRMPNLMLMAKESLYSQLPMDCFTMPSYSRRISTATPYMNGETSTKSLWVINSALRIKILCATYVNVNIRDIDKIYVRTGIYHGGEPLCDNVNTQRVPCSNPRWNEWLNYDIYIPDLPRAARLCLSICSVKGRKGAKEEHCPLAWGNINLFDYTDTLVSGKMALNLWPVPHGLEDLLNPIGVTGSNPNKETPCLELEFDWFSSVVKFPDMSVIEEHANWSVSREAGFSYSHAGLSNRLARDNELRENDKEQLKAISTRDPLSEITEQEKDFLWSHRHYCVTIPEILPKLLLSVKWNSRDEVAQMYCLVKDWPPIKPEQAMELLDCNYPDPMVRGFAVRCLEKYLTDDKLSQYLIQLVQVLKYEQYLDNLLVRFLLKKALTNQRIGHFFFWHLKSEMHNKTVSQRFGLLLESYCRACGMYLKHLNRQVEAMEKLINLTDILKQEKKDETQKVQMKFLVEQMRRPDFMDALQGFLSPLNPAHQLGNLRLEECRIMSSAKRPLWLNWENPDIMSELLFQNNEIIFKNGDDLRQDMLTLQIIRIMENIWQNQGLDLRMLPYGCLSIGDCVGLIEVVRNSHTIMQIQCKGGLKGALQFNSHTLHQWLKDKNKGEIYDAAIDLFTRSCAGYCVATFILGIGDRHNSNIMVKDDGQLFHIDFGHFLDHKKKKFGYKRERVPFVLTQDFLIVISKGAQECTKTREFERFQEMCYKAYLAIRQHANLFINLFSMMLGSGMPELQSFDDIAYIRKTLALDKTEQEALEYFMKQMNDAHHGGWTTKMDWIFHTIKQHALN
Chain of PI3K-alpha (P27986 whole entry partner, species assumed): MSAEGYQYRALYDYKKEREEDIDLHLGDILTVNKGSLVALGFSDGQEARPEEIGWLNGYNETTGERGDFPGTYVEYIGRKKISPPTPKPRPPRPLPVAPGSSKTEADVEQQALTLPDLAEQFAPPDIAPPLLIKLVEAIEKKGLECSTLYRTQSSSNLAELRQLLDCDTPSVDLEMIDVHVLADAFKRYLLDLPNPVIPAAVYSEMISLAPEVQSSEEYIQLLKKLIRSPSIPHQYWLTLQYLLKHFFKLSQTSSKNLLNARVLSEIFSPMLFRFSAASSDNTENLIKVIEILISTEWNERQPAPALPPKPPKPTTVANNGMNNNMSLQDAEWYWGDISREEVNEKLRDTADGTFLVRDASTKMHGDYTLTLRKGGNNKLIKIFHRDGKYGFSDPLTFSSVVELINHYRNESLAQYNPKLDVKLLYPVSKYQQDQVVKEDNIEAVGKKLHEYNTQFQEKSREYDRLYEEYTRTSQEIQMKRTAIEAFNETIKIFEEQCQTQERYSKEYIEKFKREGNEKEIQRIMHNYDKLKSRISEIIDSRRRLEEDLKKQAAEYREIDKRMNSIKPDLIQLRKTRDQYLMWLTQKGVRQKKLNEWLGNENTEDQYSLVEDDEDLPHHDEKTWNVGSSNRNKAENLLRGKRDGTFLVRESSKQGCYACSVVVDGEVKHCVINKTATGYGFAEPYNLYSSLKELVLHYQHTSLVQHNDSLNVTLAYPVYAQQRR

| SMILES | IC50 (PI3K-alpha) | IC50 (LNCap) | IC50 (PI3K-gamma) | IC50 (mTOR) | IC50 (MDA468) |
| --- | --- | --- | --- | --- | --- |
| CN1CCN(c2ccc(NC(=O)Nc3ccc(-c4nc(C5CCOCC5)cc(N5C6CCC5COC6)n4)cc3)cn2)CC1 [1-[6-(4-methylpiperazin-1-yl)pyridin-3-yl]-3-{4-[4-(3-oxa-8-azabicyclo[3.2.1]oct-8-yl)-6-(tetrahydro-2H-pyran-4-yl)pyrimidin-2-yl]phenyl}urea] | 2590 nM | ≤ 0.8 nM | ≥ 10 µM | 1.22 nM | 4 nM |
| CN(C)CCOc1ccc(NC(=O)Nc2ccc(-c3nc(N4C5CCC4COC5)cc(N4C[C@H]5C[C@@H]4CO5)n3)cc2)cc1 [1-{4-[2-(dimethylamino)ethoxy]phenyl}-3-(4-{4-[(1R,4R)-2-oxa-5-azabicyclo[2.2.1]hept-5-yl]-6-(3-oxa-8-azabicyclo[3.2.1]oct-8-yl)pyrimidin-2-yl}phenyl)urea] | 2740 nM | 120 nM | 9.47 µM | 12 nM | 130 nM |
| C[C@@H]1COCCN1c1cc(N2C3CCC2COC3)nc(-c2ccc(NC(=O)Nc3ccc(OCCN(C)C)cc3)cc2)n1 [1-{4-[2-(dimethylamino)ethoxy]phenyl}-3-(4-{4-[(3R)-3-methylmorpholin-4-yl]-6-(3-oxa-8-azabicyclo[3.2.1]oct-8-yl)pyrimidin-2-yl}phenyl)urea] | 853 nM | 4 nM | 6.47 µM | 1.55 nM | 13 nM |
| CC(C)Nc1cc(N2C3COCC2COC3)nc(-c2ccc(NC(=O)Nc3ccc(OCCN(C)C)cc3)cc2)n1 [1-{4-[2-(dimethylamino)ethoxy]phenyl}-3-{4-[4-(3,7-dioxa-9-azabicyclo[3.3.1]non-9-yl)-6-(isopropylamino)pyrimidin-2-yl]phenyl}urea] | 1760 nM | 420 nM | 8.63 µM | 16.5 nM | 600 nM |
| CN(C)CCOc1ccc(NC(=O)Nc2ccc(-c3nc(C4CCOCC4)cc(N4C5CCC4COC5)n3)cc2)cc1 [1-{4-[2-(dimethylamino)ethoxy]phenyl}-3-{4-[4-(3-oxa-8-azabicyclo[3.2.1]oct-8-yl)-6-(tetrahydro-2H-pyran-4-yl)pyrimidin-2-yl]phenyl}urea] | 1460 nM | 4 nM | 7.3 µM | 1.15 nM | 11 nM |
| CN(C)CCOc1ccc(NC(=O)Nc2ccc(-c3nc(NC4CCOCC4)cc(N4C5CCC4COC5)n3)cc2)cc1 [1-{4-[2-(dimethylamino)ethoxy]phenyl}-3-{4-[4-(3-oxa-8-azabicyclo[3.2.1]oct-8-yl)-6-(tetrahydro-2H-pyran-4-ylamino)pyrimidin-2-yl]phenyl}urea] | 1110 nM | 30 nM | 4.54 µM | 7.6 nM | 48 nM |
| CN(C)CCOc1ccc(NC(=O)Nc2ccc(-c3nc(NCCS(C)(=O)=O)cc(N4C5CCC4COC5)n3)cc2)cc1 [1-{4-[2-(dimethylamino)ethoxy]phenyl}-3-{4-[4-{[2-(methylsulfonyl)ethyl]amino}-6-(3-oxa-8-azabicyclo[3.2.1]oct-8-yl)pyrimidin-2-yl]phenyl}urea] | 1860 nM | 480 nM | ≥ 10 µM | 26 nM | 420 nM |
| CC(C)Nc1cc(N2C3COCC2COC3)nc(-c2ccc(NC(=O)Nc3ccc(N4CCN(C)CC4)cc3)cc2)n1 [1-{4-[4-(3,7-dioxa-9-azabicyclo[3.3.1]non-9-yl)-6-(isopropylamino)pyrimidin-2-yl]phenyl}-3-[4-(4-methylpiperazin-1-yl)phenyl]urea] | 1510 nM | 280 nM | 7.89 µM | 14.5 nM | 320 nM |
| CC(C)Nc1cc(N2C3COCC2COC3)nc(-c2ccc(NC(=O)Nc3ccncc3)cc2)n1 [1-{4-[4-(3,7-dioxa-9-azabicyclo[3.3.1]non-9-yl)-6-(isopropylamino)pyrimidin-2-yl]phenyl}-3-pyridin-4-ylurea] | 1520 nM | 280 nM | 9.24 µM | 5 nM | 400 nM |
| CC(C)Nc1cc(N2C3COCC2COC3)nc(-c2ccc(NC(=O)Nc3ccc(CN4CCN(C)CC4)cc3)cc2)n1 [1-{4-[4-(3,7-dioxa-9-azabicyclo[3.3.1]non-9-yl)-6-(isopropylamino)pyrimidin-2-yl]phenyl}-3-{4-[(4-methylpiperazin-1-yl)methyl]phenyl}urea] | 3160 nM | 600 nM | 6.87 µM | 17.5 nM | 1000 nM |
| O=C(Nc1ccc(-c2nc(C3CCOCC3)cc(N3C4CCC3COC4)n2)cc1)Nc1cccnc1 [1-{4-[4-(3-oxa-8-azabicyclo[3.2.1]oct-8-yl)-6-(tetrahydro-2H-pyran-4-yl)pyrimidin-2-yl]phenyl}-3-pyridin-3-ylurea] | 2690 nM | 4 nM | ≥ 10 µM | 0.32 nM | 200 nM |
| O=C(Nc1ccncc1)Nc1ccc(-c2nc(C3CCOCC3)cc(N3C4CCC3COC4)n2)cc1 [1-{4-[4-(3-oxa-8-azabicyclo[3.2.1]oct-8-yl)-6-(tetrahydro-2H-pyran-4-yl)pyrimidin-2-yl]phenyl}-3-pyridin-4-ylurea] | 1780 nM | ≤ 0.8 nM | 7.98 µM | 0.365 nM | 4 nM |
| O=C(Nc1ccc(-c2nc(NC3CCOCC3)cc(N3C4CCC3COC4)n2)cc1)Nc1cccnc1 [1-{4-[4-(3-oxa-8-azabicyclo[3.2.1]oct-8-yl)-6-(tetrahydro-2H-pyran-4-ylamino)pyrimidin-2-yl]phenyl}-3-pyridin-3-ylurea] | 2680 nM | 50 nM | ≥ 10 µM | 3.3 nM | 160 nM |
| O=C(Nc1ccncc1)Nc1ccc(-c2nc(NC3CCOCC3)cc(N3C4CCC3COC4)n2)cc1 [1-{4-[4-(3-oxa-8-azabicyclo[3.2.1]oct-8-yl)-6-(tetrahydro-2H-pyran-4-ylamino)pyrimidin-2-yl]phenyl}-3-pyridin-4-ylurea] | 2010 nM | 40 nM | 12 µM | 3.8 nM | 40 nM |
| CCN(CC)c1cc(N2C3CCC2COC3)nc(-c2ccc(NC(=O)Nc3ccc(N4CCN(C)CC4)cc3)cc2)n1 [1-{4-[4-(diethylamino)-6-(3-oxa-8-azabicyclo[3.2.1]oct-8-yl)pyrimidin-2-yl]phenyl}-3-[4-(4-methylpiperazin-1-yl)phenyl]urea] | 2910 nM | 132 nM | 3.39 µM | 5.85 nM | 560 nM |
| CS(=O)(=O)CCNc1cc(N2C3CCC2COC3)nc(-c2ccc(NC(=O)Nc3cccnc3)cc2)n1 [1-{4-[4-{[2-(methylsulfonyl)ethyl]amino}-6-(3-oxa-8-azabicyclo[3.2.1]oct-8-yl)pyrimidin-2-yl]phenyl}-3-pyridin-3-ylurea] | 1640 nM | 2000 nM | ≥ 10 µM | 5 nM | 800 nM |
| CS(=O)(=O)CCNc1cc(N2C3CCC2COC3)nc(-c2ccc(NC(=O)Nc3ccncc3)cc2)n1 [1-{4-[4-{[2-(methylsulfonyl)ethyl]amino}-6-(3-oxa-8-azabicyclo[3.2.1]oct-8-yl)pyrimidin-2-yl]phenyl}-3-pyridin-4-ylurea] | 1300 nM | 1000 nM | 10.8 µM | 4.05 nM | 400 nM |
| CN1CCN(C(=O)c2ccc(NC(=O)Nc3ccc(-c4nc(C5CCOCC5)cc(N5C6CCC5COC6)n4)cc3)cc2)CC1 [1-{4-[(4-methylpiperazin-1-yl)carbonyl]phenyl}-3-{4-[4-(3-oxa-8-azabicyclo[3.2.1]oct-8-yl)-6-(tetrahydro-2H-pyran-4-yl)pyrimidin-2-yl]phenyl}urea] | 230 nM | ≤ 0.8 nM | 3.05 µM | 0.44 nM | 0.8 nM |
